According to patent US20160242416A1, “FUNGICIDAL ISOXAZOLINE CARBINOLS” (E I DU PONT DE NEMOURS AND COMPANY, priority 2015, published 2016):
Read-outs that look alike come from different tables or passages of the source.

Tests used:
[1] = test system: Plasmopara viticola; assay: Test A: grape downy mildew, preventive spray on grape seedlings; type: in vivo; conditions: 100 = 100% disease control, 0 = no control
From the text: A dash (-) indicates no test results.

[2] = test system: Phytophthora infestans; type: in vivo; conditions: tomato late blight, 100 = 100% disease control, 0 = no control
[3] = test system: Botrytis cinerea; assay: Test B: gray mold, preventive spray on tomato seedlings; conditions: gray mold on tomato, 100 = 100% disease control, 0 = no control
From the text: (§1) General protocol for preparing test solutions for Tests A-G: the test compounds were first dissolved in acetone in an amount equal to 3% of the final volume and then suspended at the desired concentration (in ppm) in acetone and purified water (50/50 mix by volume) containing 250 ppm of the surfactant PEG400 (polyhydric alcohol esters). The resulting test suspensions were then used in Tests A-G. Compounds were sprayed at a concentration of 50 ppm (*) or 10 ppm to the point of run-off on the test plants, the equivalent of a rate of 200 g/ha or 40 g/ha, respectively.
The test solution was sprayed to the point of run-off on tomato seedlings. The following day the seedlings were inoculated with a spore suspension of Botrytis cinerea (the causal agent of gray mold on many crops) and incubated in a saturated atmosphere at 20° C. for 48 h, and moved to a growth chamber at 27° C. for 2 days, after which time visual disease ratings were made.
(§2) Compounds with an asterisks (*) were applied at a concentration of 50 ppm, otherwise test solutions were applied at 10 ppm.

[4] = test system: Puccinia recondita f sp. tritici; assay: Test F: wheat leaf rust, preventive spray on wheat seedlings; conditions: wheat leaf rust, 100 = 100% disease control, 0 = no control
[5] = test system: Zymoseptoria tritici; assay: Test E: wheat leaf blotch, preventive spray on wheat seedlings; conditions: wheat leaf blotch, 100 = 100% disease control, 0 = no control
[6] = test system: Stagonospora nodorum; assay: Test D: wheat glume blotch, preventive spray on wheat seedlings; conditions: wheat glume blotch, 100 = 100% disease control, 0 = no control
[7] = test system: Erysiphe graminis f sp. tritici; assay: Test G: wheat powdery mildew, preventive spray on wheat seedlings; conditions: wheat powdery mildew, 100 = 100% disease control, 0 = no control
From the text: as §1
The test solution was sprayed to the point of run-off on wheat seedlings. The following day the seedlings were inoculated with a spore dust of Erysiphe graminis f sp. tritici, (the causal agent of wheat powdery mildew) and incubated in a growth chamber at 20° C. for 8 days, after which time visual disease ratings were made.
as §2

For `CCCC(O)(Cn1cncn1)C1=NOC(c2ccc(Cl)cc2)C1` (single isomer, unassigned) [Compound 83], the “Test A rating (% disease control)” value ([1]; 10 ppm) was 1%, the “Test C rating (% disease control)” value ([2]; 10 ppm) was 0% and the “Test B rating (% disease control)” value ([3]; 10 ppm) was 0%. The “Test F rating (% disease control)” value ([4]; 10 ppm) was 99%, the “Test E rating (% disease control)” value ([5]; 10 ppm) was 0% and the “Test D rating (% disease control)” value ([6]; 10 ppm) was 87%. The “Test G rating (% disease control)” value ([7]; 10 ppm) was 99%.
In the case of `CC(O)(Cn1cncn1)C1=NOC(c2ccc(Cl)cc2)C1` (single isomer, unassigned) [Compound 35], the “Test A rating (% disease control)” value ([1]; 50 ppm (asterisk)) is reported as 21%, the “Test C rating (% disease control)” value ([2]; 50 ppm (asterisk)) is reported as 0% and the “Test B rating (% disease control)” value ([3]; 50 ppm (asterisk)) is reported as 0%. For the same compound, the “Test F rating (% disease control)” value ([4]; 50 ppm (asterisk)) was 40%, the “Test E rating (% disease control)” value ([5]; 50 ppm (asterisk)) was 0% and the “Test D rating (% disease control)” value ([6]; 50 ppm (asterisk)) was 63%. For the same compound, the “Test G rating (% disease control)” value ([7]; 50 ppm (asterisk)) was 100%.
For `OC(Cn1cncn1)(C1=NOC(Cn2ccc(-c3ccc(C(F)(F)F)cc3)n2)C1)c1ccc(Cl)cc1` (single isomer, unassigned) [Compound 68], the “Test A rating (% disease control)” value ([1]; 10 ppm) was 3%, the “Test C rating (% disease control)” value ([2]; 10 ppm) was 0% and the “Test B rating (% disease control)” value ([3]; 10 ppm) was 0%. The “Test F rating (% disease control)” value ([4]; 10 ppm) was 99%, the “Test E rating (% disease control)” value ([5]; 10 ppm) was 2% and the “Test D rating (% disease control)” value ([6]; 10 ppm) was 0%. The “Test G rating (% disease control)” value ([7]; 10 ppm) was 95%.
For `OC(Cn1cncn1)(C1=NOC(Cn2ccc(-c3ccc(Cl)cc3)n2)C1)c1ccc(Cl)cc1` (single isomer, unassigned) [Compound 65], the “Test A rating (% disease control)” value ([1]; 10 ppm) was 3%, the “Test C rating (% disease control)” value ([2]; 10 ppm) was 0% and the “Test B rating (% disease control)” value ([3]; 10 ppm) was 0%. The “Test F rating (% disease control)” value ([4]; 10 ppm) was 100%, the “Test E rating (% disease control)” value ([5]; 10 ppm) was 0% and the “Test D rating (% disease control)” value ([6]; 10 ppm) was 0%. For the same compound, the “Test G rating (% disease control)” value ([7]; 10 ppm) was 98%.
For `CC(O)(Cn1cncn1)C1=NOC(c2ccc(Cl)cc2)C1` (single isomer, unassigned) [Compound 36], the “Test A rating (% disease control)” value ([1]; 50 ppm (asterisk)) was 11%, the “Test C rating (% disease control)” value ([2]; 50 ppm (asterisk)) was 0% and the “Test B rating (% disease control)” value ([3]; 50 ppm (asterisk)) was 0%. For the same compound, the “Test F rating (% disease control)” value ([4]; 50 ppm (asterisk)) was 17%, the “Test E rating (% disease control)” value ([5]; 50 ppm (asterisk)) was 0% and the “Test D rating (% disease control)” value ([6]; 50 ppm (asterisk)) was 53%. The “Test G rating (% disease control)” value ([7]; 50 ppm (asterisk)) was 99%.
In the case of `OC(Cn1cncn1)(C1=NOC(COc2ccc(Cl)cc2)C1)c1ccc(Cl)cc1` (single isomer, unassigned) [Compound 61], the “Test A rating (% disease control)” value ([1]; 10 ppm) is reported as 4%, the “Test C rating (% disease control)” value ([2]; 10 ppm) is reported as 0% and the “Test B rating (% disease control)” value ([3]; 10 ppm) is reported as 0%. For the same compound, the “Test F rating (% disease control)” value ([4]; 10 ppm) was 100%, the “Test E rating (% disease control)” value ([5]; 10 ppm) was 99% and the “Test D rating (% disease control)” value ([6]; 10 ppm) was 94%. The “Test G rating (% disease control)” value ([7]; 10 ppm) was 100%.
In the case of `OC(Cn1cncn1)(C1=NOC(Cn2ccc(-c3ccc(Cl)cc3)n2)C1)c1ccc(Cl)cc1` (single isomer, unassigned) [Compound 66], the “Test A rating (% disease control)” value ([1]; 10 ppm) is reported as 3%, the “Test C rating (% disease control)” value ([2]; 10 ppm) is reported as 0% and the “Test B rating (% disease control)” value ([3]; 10 ppm) is reported as 0%. The “Test F rating (% disease control)” value ([4]; 10 ppm) was 98%, the “Test E rating (% disease control)” value ([5]; 10 ppm) was 1% and the “Test D rating (% disease control)” value ([6]; 10 ppm) was 0%. For the same compound, the “Test G rating (% disease control)” value ([7]; 10 ppm) was 97%.
